{"source": "patent US20160074333A1", "about": "“Pharmaceutical compositions of tamsulosin or salts thereof” (WOCKHARDT LIMITED, priority 2013, published 2016)", "origin": "cited, not measured here", "note": "Structures can show the parent of a compound that is named as a salt. Where two headings read alike, the source gives them in different places.", "data": [{"smiles": "CCOc1ccccc1OCCN[C@H](C)Cc1ccc(OC)c(S(N)(=O)=O)c1", "note": "[Tamsulosin hydrochloride, (-)-(R)-5-[2-[[2-(o-Ethoxyphenoxy)ethyl]amino]propyl]-2-methoxybenzene sulfonamide, monohydrochloride]", "values": [{"measurement": "solubility", "setting": "in ethanol", "value": "slightly soluble"}, {"measurement": "solubility", "setting": "in ether", "value": "practically insoluble"}, {"measurement": "solubility", "setting": "in glacial acetic acid", "value": "slightly soluble"}, {"measurement": "solubility", "setting": "in methanol", "value": "sparingly soluble"}, {"measurement": "solubility", "setting": "in water", "value": "sparingly soluble"}]}]}
